Test results from paper PMC6789589, “A Convenient Synthetic Method to Improve Immunogenicity of Mycobacterium tuberculosis Related T-Cell Epitope Peptides” (Vaccines, 2019).
Starred links: 1 amine or outer side, 2 acyl side, 3 side chain; linkers in the order of their positions; H or OH if unused. Positions of bridges follow the written chain, without caps; N, C: chain ends. Residues, ends and D or L forms follow the SMILES beside them. Chains are numbered I, II in the order given. *: point of attachment. X1 = O=C1CC([*:2])C(=O)N1CCCCCC(=O)[*:1]; Palmitoyl = CCCCCCCCCCCCCCCC(=O)*

Tests used:
[1] = system: human erythrocyte suspension; assay: Hemolytic activity assay on human erythrocyte suspension; assay type: cell-based; settings: 2% (v/v) human erythrocyte suspension, 2 h, 37 °C, 0.05–100 µM
Experimental: The hemolytic activity of the compounds was measured on human erythrocyte suspension. Cytotoxicity was assayed on murine BMDM. These two experiments are detailed in the Supplementary Information.
The hemolytic activity of the compounds was assayed as described previously. Briefly, peripheral blood from healthy volunteers was collected in vacuum tubes containing heparin (Li-heparin LH, VenoSafe) as anticoagulant. Tubes were centrifuged (1000 g, 5 min) and the pellet was washed three times with RPMI-1640 (culturing medium without phenol red). RPMI medium was added to the pellet to yield a final 2% (v/v) RBC suspension. […]
0.5%). […] After centrifugation (1000 g, 5 min), 100 µL of the supernatant was transferred to a flat-bottom microtiter plate and absorbance was measured at 414 nm using an ELISA plate reader (iEMS Reader, Labsystems). The percentage hemolysis was compared to a hemolytic control peptide (CM15, 200 μM) treated RBC and the concentration of peptide at which 50% hemolysis occurred (HC50 value) was determined. Compounds were measured in triplicates.
The cytotoxic effect of the compounds was measured on murine BMDMs. […] The precipitated purple crystals were dissolved in 100 μL DMSO, and after 10 minutes agitation, the absorbance was determined at λ = 540 nm and 620 nm using an ELISA plate reader (iEMS Reader, Labsystems). […]
1 Determined on 2% (v/v) human erythrocyte suspension. […]

[2] = Water solubility (observation); assay type: physicochemical
MM6 cells = assay: Intracellular localization by confocal laser scanning microscopy; assay type: cell-based, human; settings: Cf-labelled peptides, 60 min; P/A/I mix 5 µM, A(P)I 2.5 µM, pal-A(P)I 0.5 µM
Experimental: Cellular uptake and localization were visualized by confocal microscopy. MM6 cells were seeded (10^5 cells/well) one day prior to treatment on cover glass containing 24-well plates (Sarstedt, Nümbrecht, Germany). Lysosomes were stained by LysoTracker^TM Deep Red (Invitrogen, Carlsbad, CA, USA) for 30 min, followed by incubation with Cf-labeled peptides for 60 min. Subsequently, nuclei were stained by Hoechst 33342 solution (Thermo Scientific, Waltham, MA, USA). After each step, cells were washed three times with serum-free medium. Cells were fixed by 4% paraformaldehyde for 15 min and mounted to microscopy slides with Mowiol® 4–88. Imaging was performed on a Zeiss LSM 710 system with 40× oil immersion objective. Images were processed with ZEN lite software (Zeiss, Oberkochen, Germany).
Localization of the compounds was visualized by confocal laser scanning microscopy in MM6 cells (Figure 2c). Cells were incubated with Cf-labelled peptides for 60 min; moreover, nuclei and lysosomes were also stained. The peptide concentrations for P/A/I mix, A(P)I, and pal-A(P)I were 5, 2.5, and 0.5 µM, respectively. As different compound concentrations and laser intensities were also used to visualize the compounds showing low or high internalization, the presented images give information about the intracellular localization and are not to be considered in a quantitative manner.

[3] = system: MonoMac6 human monocytes (MM6); assay: Cellular uptake (internalization) by flow cytometry in MonoMac6; settings: Cf-labelled compounds, MM6, 2.5 µM, 2 h, flow cytometry histograms (Figure S1)
Experimental: Internalization of the compounds was measured in the MonoMac6 (MM6) human monocytic cell line [31] and on murine bone marrow-derived macrophages (BMDMs). MonoMac6 cells were maintained as an adherent culture in RPMI-1640 supplemented with 10% heat-inactivated fetal calf serum (FCS) L-glutamine (2 mM) and gentamicin (35 μM) at 37 °C in a humidified atmosphere containing 5% CO2. […] For the assay, cells were treated with peptides at 2.5 µM final concentration and were incubated for 2 hours. After centrifugation (1000 rpm, 5 min) and washing with serum-free RPMI medium, supernatant was removed and 100 μL 0.25% trypsin was added to the cells. After 5 min incubation, 0.8 mL 10% FCS/HPMI medium was added, then cells were washed and re-suspended in 0.3 mL HPMI medium. The intracellular fluorescence intensity of the cells was measured on a BD LSR II flow cytometer (BD Biosciences, San Jose, CA, USA) on channel FITC (emission at λ = 505 nm) and data were analyzed with FACSDiva 5.0 software (BD Biosciences, San Jose, CA, USA). External fluorescence quenching was performed by adding 10 µL of 0.04% trypan blue solution. […]
treated with the compounds, then cells were analyzed by flow cytometry. To quantify viable cells, […]
negative control, RPMI medium was used (b) and the FITC-negative population was determined on this

antigen presenting cells = assay: Time course of cellular uptake by flow cytometry; assay type: cell-based; settings: incubation 15 min to 16 h, FITC-positive cells and mean fluorescence intensity (Figure 3c)
Experimental: To further analyze the internalization of the compounds, the time course of the cellular uptake rate was measured by flow cytometry. […] The internalization rate of pal-A(P)I conjugate was very fast.
Figure 3 Detailed study on the cellular uptake by antigen presenting cells and the time course of internalization. Fluorescence intensity of compound treated cells was analyzed by flow cytometry (a) with or without trypsinization, and (b) in the presence or absence of trypan blue. No significant differences were observed after eliminating the fluorescent signal from adsorbed peptides or conjugates. (c) To study the time course of internalization, different incubation periods (15 min, 1 h, 3 h, 6 h, and 16 h) were applied, and the intracellular fluorescence intensity was measured. (d) The viability of compound-treated cells was compared to untreated control cells, and relative viabilities are presented. The viability of the control cells was always > 85% (results are represented as mean ± SEM, n = 3).

Row | SMILES | Hemolytic activity HC50 ± sd [1] | water solubility [2] | intracellular localization (MM6 cells) | percentage of FITC-positive cells [3] | time course of internalization, in words (antigen presenting cells)
1 | CCCCCCCCCCCCCCCC(=O)N[C@@H](CCCCN)C(=O)N[C@@H](CC(C)C)C(=O)N[C@H](C(=O)N[C@@H](C)C(=O)N[C@@H](CC(N)=O)C(=O)N[C@@H](CC(N)=O)C(=O)N[C@H](C(=O)N[C@@H](CCCNC(=N)N)C(=O)N[C@@H](CC(C)C)C(=O)N[C@H](C(=O)N[C@@H](CCCCNC(=O)CCCCCN1C(=O)CC(SC[C@H](NC(=O)[C@H](C)NC(=O)[C@@H](NC(=O)[C@@H]2CCCN2C(=O)[C@@H](NC(=O)[C@@H](NC(=O)[C@H](CC(N)=O)NC(=O)[C@@H](NC(=O)CNC(=O)[C@H](Cc2ccccc2)NC(=O)[C@@H](N)Cc2ccccc2)[C@@H](C)CC)[C@@H](C)O)[C@@H](C)CC)[C@@H](C)CC)C(N)=O)C1=O)C(=O)N1CCC[C@H]1C(=O)N[C@@H](CCCCN)C(=O)NCC(=O)NCC(=O)N[C@@H](CC(C)C)C(=O)N[C@H](C(=O)N[C@@H](CC(=O)O)C(=O)N[C@H](C(=O)N[C@@H](C)C(=O)N1CCC[C@H]1C(=O)N[C@@H](Cc1c[nH]cn1)C(=O)N[C@@H](CCC(N)=O)C(=O)N[C@H](C(=O)N[C@@H](CO)C(=O)N[C@@H](CO)C(=O)N[C@H](C(N)=O)C(C)C)[C@@H](C)CC)[C@@H](C)CC)[C@@H](C)CC)[C@@H](C)O)[C@@H](C)O)C(C)C (some centres unmarked) [pal-A(P)I, palmitoyl-KLVANNTRL-TKmal(FFGINTIPIAC)PKG-GLIDIAPHQISSV] (I: Palmitoyl-KLVANNTRLTKPKGGLIDIAPHQISSV-NH2 / II: H-FFGINTIPIAC-NH2; linker I:11-II:11 via X1) | > 100 µM | very low water solubility |  |  | 
2 | CC[C@H](C)[C@H](NC(=O)CNC(=O)[C@H](Cc1ccccc1)NC(=O)[C@@H](N)Cc1ccccc1)C(=O)N[C@@H](CC(N)=O)C(=O)N[C@H](C(=O)N[C@H](C(=O)N1CCC[C@H]1C(=O)N[C@H](C(=O)N[C@@H](C)C(=O)N[C@@H](CSC1CC(=O)N(CCCCCC(=O)NCCCC[C@H](NC(=O)[C@@H](NC(=O)[C@H](CC(C)C)NC(=O)[C@H](CCCNC(=N)N)NC(=O)[C@@H](NC(=O)[C@H](CC(N)=O)NC(=O)[C@H](CC(N)=O)NC(=O)[C@H](C)NC(=O)[C@@H](NC(=O)[C@H](CC(C)C)NC(=O)[C@H](CCCCN)NC(C)=O)C(C)C)[C@@H](C)O)[C@@H](C)O)C(=O)N2CCC[C@H]2C(=O)N[C@@H](CCCCN)C(=O)NCC(=O)NCC(=O)N[C@@H](CC(C)C)C(=O)N[C@H](C(=O)N[C@@H](CC(=O)O)C(=O)N[C@H](C(=O)N[C@@H](C)C(=O)N2CCC[C@H]2C(=O)N[C@@H](Cc2c[nH]cn2)C(=O)N[C@@H](CCC(N)=O)C(=O)N[C@H](C(=O)N[C@@H](CO)C(=O)N[C@@H](CO)C(=O)N[C@H](C(N)=O)C(C)C)[C@@H](C)CC)[C@@H](C)CC)[C@@H](C)CC)C1=O)C(N)=O)[C@@H](C)CC)[C@@H](C)CC)[C@@H](C)O (some centres unmarked) [A(P)I, KLVANNTRL-TKmal(FFGINTIPIAC)PKG-GLIDIAPHQISSV] (I: Ac-KLVANNTRLTKPKGGLIDIAPHQISSV-NH2 / II: H-FFGINTIPIAC-NH2; linker I:11-II:11 via X1; N-terminus and C-terminus assumed) |  |  | colocalization with lysosomes that was even more pronounced | 21.5% | significantly slower than the internalization of pal-A(P)I
